Results on one compound are retold here after PMC4177084 (Journal of Thyroid Research, 2014).

By IC50 is commonly meant the concentration that inhibits the measured activity by half. Low readings indicate inhibition by little substance, high ones a need for much substance.

For one data set, the target named is T1, KIT(T670I) (Homo sapiens, UniProt P10721, T670I).
T1 construct: purchased Carna Biosciences, Inc. (Kobe, Japan)
Put plainly: Cell free kinase inhibition assay. The class given is biochemical.

The target in another data set is T2, PDGFRα(T674I) (Homo sapiens, UniProt P16234, T674I).
T2 construct: purchased Carna Biosciences, Inc. (Kobe, Japan)
Put plainly: Cell free kinase inhibition assay. The class given is biochemical.

For a further data set, the target named is T3, FGR (Homo sapiens, UniProt P09769).
T3 construct: purchased Carna Biosciences, Inc. (Kobe, Japan)
Put plainly: Cell free kinase inhibition assay. Type of data set: biochemical.

The next data set addresses T4, CSK (Homo sapiens, UniProt P41240).
T4 construct: purchased Carna Biosciences, Inc. (Kobe, Japan)
Briefly: Cell free kinase inhibition assay. The class given is biochemical.

Another data set has as its target T5, FLT3 (Homo sapiens, UniProt P36888).
T5 construct: purchased Carna Biosciences, Inc. (Kobe, Japan)
Briefly: Cell free kinase inhibition assay. Type of data set: biochemical.

Another data set concerns the target T6, EPHA1 (Homo sapiens, UniProt P21709).
T6 construct: purchased Carna Biosciences, Inc. (Kobe, Japan)
Put plainly: Cell free kinase inhibition assay. Type of data set: biochemical.

The next data set concerns the target T7, MUSK (Homo sapiens, UniProt O15146).
T7 construct: purchased Carna Biosciences, Inc. (Kobe, Japan)
Put plainly: Cell free kinase inhibition assay. Type of data set: biochemical.

The target of the next data set is T8, IKKb (Homo sapiens, UniProt O14920).
T8 construct: purchased Carna Biosciences, Inc. (Kobe, Japan)
Briefly: Cell free kinase inhibition assay. Type of data set: biochemical.

The target of the next data set is T9, PLK1 (Homo sapiens, UniProt P53350).
T9 construct: purchased Carna Biosciences, Inc. (Kobe, Japan)
Put plainly: Cell free kinase inhibition assay. The class given is biochemical.

A further data set deals with T10, WEE1 (Homo sapiens, UniProt P30291).
T10 construct: purchased Carna Biosciences, Inc. (Kobe, Japan)
Put plainly: Cell free kinase inhibition assay. Type of data set: biochemical.

In the next data set the test system is K1 cells. Put plainly: Antiproliferation assay (WST-8). Type of data set: cell-based, human. To be noted: Homo sapiens, 72 h; K1 (DTC), antiproliferative, 3 days. A general note: Formazan colour is commonly taken as a measure of viable cells.
Another data set deals with FTC-133 cells. Put plainly: Antiproliferation assay (WST-8). The class given is cell-based, human. To be noted: Homo sapiens, 72 h; FTC-133 (DTC), antiproliferative, 3 days.
The next data set concerns VEGFR, FGFR, KIT, PDGFR. Briefly: Cell free kinase inhibition assay, summary for RTKs. Type of data set: biochemical. Particulars: PDGFR (Supplementary Table S1). As to the method: […]. Briefly, each test compound was mixed with enzyme, substrate, ATP, and Mg under appropriate buffer conditions for the ELISA or MSA. […] IC50 values (the half maximal inhibitory concentration) were calculated from concentrations versus % inhibition curves.

Another data set addresses T11, KIF5B-RET (M918T) (Homo sapiens, UniProt P07949+P33176, M918T).
T11 construct: KIF5B N-terminal portion (fusion partner); expressed in transfected cells; host or cells: Nthy-ori 3-1 (human normal thyroid cells), plasmid pCLxIP KIF5B-RET M918T
Put plainly: Western blot of RET phosphorylation in Nthy-ori 3-1 transfectants. The class given is cell-based. To be noted: 1 h. The source says:
(§1) The human full-length KIF5B-RET gene was chemically synthesized by GenScript Corp. (Piscataway, NJ) and then amplified by polymerase chain reaction (PCR) using a primer set containing attB recombination sequences. ENTRY vectors for the Gateway cloning system (Life Technologies) were generated via the BP Clonase reaction using the PCR products and the plasmid pDONR221. The expression vector pCLxIP KIF5B-RET was generated via the LR Clonase reaction between each ENTRY vector and the destination vector pCLxIP-DEST [37]. Expression vectors for KIF5B-RET M918T were generated by introducing a point mutation into the pCLxIP KIF5B-RET expression vector.
A general note: In western blotting, separated proteins are transferred to a membrane and probed.

For the next data set, the target named is T12, KIF5B-RET (wild-type) (Homo sapiens, UniProt P07949+P33176).
T12 construct: KIF5B N-terminal portion (fusion partner); expressed in transfected cells; host or cells: Nthy-ori 3-1 (human normal thyroid cells), plasmid pCLxIP KIF5B-RET
The description is as above. To be noted: 1 h. Type of data set: cell-based.
Text: as §1

Data set [1] deals with 5 ATC xenograft models (8305C, 8505C, TCO-1, KHM-5M, HTC/C3). Briefly: Human thyroid cancer xenograft models, tumor growth. Type of data set: in vivo, nude mice. Particulars: all 5 ATC xenograft models, 10 and 100 mg/kg oral once daily 14 days. As to the method: (§2) Nude mice (CAnN.Cg-Foxn1nu/CrlCrlj, female, 5-6 weeks old) were obtained from Charles River Laboratories Japan (Kanagawa, Japan). Mice were maintained under specific pathogen-free conditions and housed in barrier facilities on a 12 h light/dark cycle, with food and water ad libitum. All procedures using laboratory animals were done in accordance with all applicable institutional and government regulatory guidelines and policies and were performed in an animal facility accredited by the Center for Accreditation of Laboratory Animal Care of the Japan Health Sciences Foundation. Tumor cells were cultured in appropriate culture mediums. […] Then, 0.1-0.2 mL of the cell suspension was inoculated subcutaneously into the right flank region of each mouse. […] The tumor size was measured in two dimensions by using a caliper, and the volume was calculated by using the formula: tumor volume (mm^3) = 1/2 length (mm) × [width (mm)]^2. The change in tumor volume in the treated group relative to that in the control group was calculated according to the following formula: ΔT/C = (ΔT/ΔC) × 100%, where ΔT and ΔC are the change in tumor volume (i.e., growth) for the treated and vehicle control group, respectively. The percentage of tumor growth inhibition (%TGI) was calculated from the formula: [(1 − ΔT/ΔC) × 100].

Data set [2] deals with 5 DTC xenograft models (K1, RO82-W-1, FTC-133, FTC-236, FTC-238). Described as above. Type of data set: in vivo, nude mice. To be noted: all 5 DTC xenograft models, 30 and 100 mg/kg oral once daily 14 days. The procedure:
as §2

Data set [3] can be described thus: Macroscopic changes and body weight during treatment of xenograft-bearing mice. The class given is in vivo. To be noted: nude mice bearing xenografts, during daily oral treatment. The procedure:
Tumor cells were cultured in appropriate culture mediums. Cells were harvested with 0.05% or 0.25% (w/v) trypsin/EDTA and suspended with 50% (v/v) BD Matrigel (BD Biosciences, San Jose, CA) in the mixture of culture mediums at a density of 5–10 × 10^7 cells/mL. Then, 0.1-0.2 mL of the cell suspension was inoculated subcutaneously into the right flank region of each mouse. […] The tumor size was measured in two dimensions by using a caliper, and the volume was calculated by using the formula: tumor volume (mm^3) = 1/2 length (mm) × [width (mm)]^2. The change in tumor volume in the treated group relative to that in the control group was calculated according to the following formula: ΔT/C = (ΔT/ΔC) × 100%, where ΔT and ΔC are the change in tumor volume (i.e., growth) for the treated and vehicle control group, respectively. The percentage of tumor growth inhibition (%TGI) was calculated from the formula: [(1 − ΔT/ΔC) × 100].

The subject of data set [4] is CCDC-RET, human DTC TPC1 cell lines. To be noted: cited from earlier work.
The next data set deals with RET (C634W) and ERK1/2. Briefly: Western blot of RET phosphorylation in TT cells. To be noted: cultured TT cells, 1 h treatment.
The next data set concerns RET. Briefly: Western blot of RET phosphorylation in TT xenografts. To be noted: 2 h after oral administration.

Bounds are passed on as bounds.

T2 sequence (P16234 24-1089 T674I): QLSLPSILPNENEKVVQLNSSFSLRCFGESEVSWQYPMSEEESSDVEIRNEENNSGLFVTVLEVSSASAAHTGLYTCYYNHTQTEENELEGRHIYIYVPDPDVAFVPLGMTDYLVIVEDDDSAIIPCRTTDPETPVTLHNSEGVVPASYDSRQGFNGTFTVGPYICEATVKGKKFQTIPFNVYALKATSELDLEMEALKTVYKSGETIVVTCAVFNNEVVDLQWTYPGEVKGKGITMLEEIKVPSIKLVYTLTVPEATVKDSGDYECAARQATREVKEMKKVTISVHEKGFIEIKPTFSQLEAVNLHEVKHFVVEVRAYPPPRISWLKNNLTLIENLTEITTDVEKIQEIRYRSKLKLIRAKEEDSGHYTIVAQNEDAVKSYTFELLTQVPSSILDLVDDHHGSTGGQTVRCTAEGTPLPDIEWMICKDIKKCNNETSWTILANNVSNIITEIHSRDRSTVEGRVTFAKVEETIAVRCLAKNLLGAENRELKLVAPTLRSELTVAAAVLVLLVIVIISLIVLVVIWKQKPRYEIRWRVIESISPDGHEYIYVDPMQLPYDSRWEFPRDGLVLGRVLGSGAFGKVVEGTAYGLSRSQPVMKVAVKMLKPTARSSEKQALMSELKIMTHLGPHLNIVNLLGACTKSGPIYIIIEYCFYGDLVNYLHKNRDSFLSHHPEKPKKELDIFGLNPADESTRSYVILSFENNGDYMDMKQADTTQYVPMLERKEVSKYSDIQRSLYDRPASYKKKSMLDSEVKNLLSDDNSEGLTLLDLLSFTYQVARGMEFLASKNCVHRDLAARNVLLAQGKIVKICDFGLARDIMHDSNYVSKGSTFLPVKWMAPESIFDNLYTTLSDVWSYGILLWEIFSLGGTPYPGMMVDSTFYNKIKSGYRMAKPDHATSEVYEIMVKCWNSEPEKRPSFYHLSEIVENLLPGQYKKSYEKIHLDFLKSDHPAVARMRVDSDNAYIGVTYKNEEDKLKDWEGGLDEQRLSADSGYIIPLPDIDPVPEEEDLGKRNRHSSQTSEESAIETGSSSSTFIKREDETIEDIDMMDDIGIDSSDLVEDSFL
T5 sequence (P36888 27-993): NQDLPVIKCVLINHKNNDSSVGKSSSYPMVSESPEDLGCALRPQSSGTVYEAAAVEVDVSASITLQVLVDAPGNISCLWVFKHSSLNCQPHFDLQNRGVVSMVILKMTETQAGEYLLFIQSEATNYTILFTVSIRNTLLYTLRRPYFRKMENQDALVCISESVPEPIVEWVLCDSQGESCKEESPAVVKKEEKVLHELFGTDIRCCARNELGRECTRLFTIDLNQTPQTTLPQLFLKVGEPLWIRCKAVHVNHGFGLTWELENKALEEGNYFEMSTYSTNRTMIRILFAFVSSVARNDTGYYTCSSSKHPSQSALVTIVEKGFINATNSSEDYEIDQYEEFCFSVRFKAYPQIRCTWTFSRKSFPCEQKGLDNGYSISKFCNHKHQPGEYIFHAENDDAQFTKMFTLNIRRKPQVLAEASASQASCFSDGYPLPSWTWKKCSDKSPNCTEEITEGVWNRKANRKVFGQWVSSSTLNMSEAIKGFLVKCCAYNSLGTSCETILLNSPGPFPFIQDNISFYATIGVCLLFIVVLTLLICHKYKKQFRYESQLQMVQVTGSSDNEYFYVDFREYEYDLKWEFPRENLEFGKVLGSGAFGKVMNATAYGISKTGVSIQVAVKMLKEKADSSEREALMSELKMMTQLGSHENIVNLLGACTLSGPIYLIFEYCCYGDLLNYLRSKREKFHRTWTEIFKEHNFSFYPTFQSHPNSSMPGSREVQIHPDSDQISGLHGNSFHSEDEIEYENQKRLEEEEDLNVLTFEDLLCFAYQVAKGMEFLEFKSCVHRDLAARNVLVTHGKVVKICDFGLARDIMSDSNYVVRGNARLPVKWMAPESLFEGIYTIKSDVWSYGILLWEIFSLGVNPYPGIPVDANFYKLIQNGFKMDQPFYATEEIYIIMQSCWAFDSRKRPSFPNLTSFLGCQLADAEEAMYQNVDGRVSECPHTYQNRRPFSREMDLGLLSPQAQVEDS
T9 sequence (P53350 whole entry): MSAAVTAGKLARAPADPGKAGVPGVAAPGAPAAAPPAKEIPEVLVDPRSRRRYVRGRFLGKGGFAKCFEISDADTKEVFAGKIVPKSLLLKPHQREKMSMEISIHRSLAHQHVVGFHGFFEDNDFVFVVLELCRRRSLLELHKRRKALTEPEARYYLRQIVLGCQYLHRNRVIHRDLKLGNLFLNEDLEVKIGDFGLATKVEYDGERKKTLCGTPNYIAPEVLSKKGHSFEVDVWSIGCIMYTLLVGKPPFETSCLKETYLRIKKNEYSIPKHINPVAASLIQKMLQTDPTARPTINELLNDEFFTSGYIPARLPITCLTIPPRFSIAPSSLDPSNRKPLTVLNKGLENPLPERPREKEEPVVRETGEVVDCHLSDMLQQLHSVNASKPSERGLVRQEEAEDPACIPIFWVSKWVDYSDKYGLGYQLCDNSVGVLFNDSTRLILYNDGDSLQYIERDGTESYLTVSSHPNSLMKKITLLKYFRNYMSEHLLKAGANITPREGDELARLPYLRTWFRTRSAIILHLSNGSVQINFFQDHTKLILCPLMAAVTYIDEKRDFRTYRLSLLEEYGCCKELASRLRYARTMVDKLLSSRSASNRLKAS
T11 sequence (P07949 713-1063 M918T limits assumed, one chain of several): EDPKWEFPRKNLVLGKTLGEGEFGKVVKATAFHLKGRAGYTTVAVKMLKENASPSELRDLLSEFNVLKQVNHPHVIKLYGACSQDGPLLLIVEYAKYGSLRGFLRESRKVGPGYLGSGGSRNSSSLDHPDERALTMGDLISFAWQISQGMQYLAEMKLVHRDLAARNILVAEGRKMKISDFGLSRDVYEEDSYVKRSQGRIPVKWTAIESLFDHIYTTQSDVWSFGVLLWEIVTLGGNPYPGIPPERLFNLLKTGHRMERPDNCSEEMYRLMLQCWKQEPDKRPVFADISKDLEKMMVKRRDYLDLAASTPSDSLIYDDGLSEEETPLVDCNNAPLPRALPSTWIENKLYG
T8 sequence (O14920 whole entry): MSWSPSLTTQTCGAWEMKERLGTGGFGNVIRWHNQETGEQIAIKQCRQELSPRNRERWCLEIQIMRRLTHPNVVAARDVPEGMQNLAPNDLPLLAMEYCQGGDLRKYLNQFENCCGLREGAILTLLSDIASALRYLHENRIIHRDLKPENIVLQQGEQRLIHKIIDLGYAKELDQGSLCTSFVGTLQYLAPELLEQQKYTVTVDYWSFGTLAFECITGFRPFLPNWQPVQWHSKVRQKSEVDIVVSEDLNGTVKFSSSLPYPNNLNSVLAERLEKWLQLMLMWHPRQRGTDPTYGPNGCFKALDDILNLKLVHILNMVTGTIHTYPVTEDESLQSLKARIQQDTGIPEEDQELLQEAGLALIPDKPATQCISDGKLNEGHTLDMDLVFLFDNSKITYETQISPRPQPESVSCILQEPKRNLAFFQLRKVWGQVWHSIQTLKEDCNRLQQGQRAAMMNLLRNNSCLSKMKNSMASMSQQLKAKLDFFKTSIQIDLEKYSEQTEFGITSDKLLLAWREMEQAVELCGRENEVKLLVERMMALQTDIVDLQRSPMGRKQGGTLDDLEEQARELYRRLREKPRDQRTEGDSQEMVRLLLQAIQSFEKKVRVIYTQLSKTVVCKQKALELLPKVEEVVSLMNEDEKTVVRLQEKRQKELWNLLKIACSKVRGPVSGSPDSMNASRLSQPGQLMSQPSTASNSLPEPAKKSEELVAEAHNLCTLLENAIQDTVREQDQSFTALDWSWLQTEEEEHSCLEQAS
T6 sequence (P21709 26-976): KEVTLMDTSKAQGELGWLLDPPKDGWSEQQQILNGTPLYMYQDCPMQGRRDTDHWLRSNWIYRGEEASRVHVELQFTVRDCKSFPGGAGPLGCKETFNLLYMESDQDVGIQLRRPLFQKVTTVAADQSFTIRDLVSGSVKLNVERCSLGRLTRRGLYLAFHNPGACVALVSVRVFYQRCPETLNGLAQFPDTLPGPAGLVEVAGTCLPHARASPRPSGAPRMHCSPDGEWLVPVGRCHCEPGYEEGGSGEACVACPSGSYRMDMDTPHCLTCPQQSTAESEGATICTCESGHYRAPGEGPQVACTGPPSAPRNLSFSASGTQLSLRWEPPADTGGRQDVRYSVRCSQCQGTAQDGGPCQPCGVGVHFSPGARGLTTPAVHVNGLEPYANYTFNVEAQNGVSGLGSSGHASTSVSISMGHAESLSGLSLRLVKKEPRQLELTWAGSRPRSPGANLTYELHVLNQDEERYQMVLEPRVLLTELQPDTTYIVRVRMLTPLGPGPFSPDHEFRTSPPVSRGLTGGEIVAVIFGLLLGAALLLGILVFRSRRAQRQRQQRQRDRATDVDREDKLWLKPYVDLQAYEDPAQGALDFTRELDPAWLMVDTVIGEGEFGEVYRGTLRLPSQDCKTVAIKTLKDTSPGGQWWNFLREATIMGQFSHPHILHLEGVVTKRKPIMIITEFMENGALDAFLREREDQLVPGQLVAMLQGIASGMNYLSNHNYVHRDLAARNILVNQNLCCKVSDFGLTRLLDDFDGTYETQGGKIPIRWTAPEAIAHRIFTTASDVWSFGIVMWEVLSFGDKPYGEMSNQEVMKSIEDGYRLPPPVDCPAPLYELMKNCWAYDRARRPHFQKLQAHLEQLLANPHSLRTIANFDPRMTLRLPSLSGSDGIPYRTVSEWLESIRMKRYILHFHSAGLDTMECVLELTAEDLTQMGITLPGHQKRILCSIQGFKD
T12 sequence (P07949 713-1063 limits assumed, one chain of several): as the sequence (P07949 713-1063 M918T limits assumed, one chain of several) above, with T206M counted along it

On to `COc1cc2nccc(Oc3ccc(NC(=O)NC4CC4)c(Cl)c3)c2cc1C(N)=O` [Lenvatinib, Lenvatinib mesilate], for which the IC50 at KIT(T670I) was 0.41 µM; at PDGFRα(T674I), 0.63 µM; on FGR, 0.91 µM; at CSK, 2.6 µM; on FLT3, 4.1 µM; against EPHA1, 5.1 µM. In addition, the 50% inhibitory concentration (IC50) on MUSK is > 10 µM; against IKKb it was > 10 µM; on PLK1, > 10 µM; on WEE1, > 10 µM; in the data set on K1 cells, 22 µM; in the data set on FTC-133 cells it was 24 µM. Besides, the IC50 with VEGFR, FGFR, KIT, PDGFR was < 0.1 µM. The “phosphorylation of M918T mutant RET” value at KIF5B-RET (M918T) is “inhibited”. Further, at KIF5B-RET (wild-type), the “phosphorylation of wild-type RET” value was “inhibited”. The antitumor activity result in data set [1] and in data set [2] was “significant antitumor activity” throughout. For the same compound, in [3], the “macroscopic changes or loss of body weight” value was “no macroscopic changes or loss of body weight were observed”. The “phosphorylation of CCDC-RET, in vitro proliferation and in vivo tumor growth of TPC1” value in [4] is “inhibits”. For the same compound, the “phosphorylation of RET and of ERK1/2” value with RET (C634W) and ERK1/2 was “inhibited”. Further, the RET phosphorylation result with RET is listed as “inhibition of RET phosphorylation”.
